The results in this text go back to US12383562B2, “Application of metal complex” (Hunan Fangshengtai Medical Technology Co., Ltd., priority 2019, dated 2025).

This assay relates to mice with inflammatory pain. Briefly: Analgesic activity: CFA-induced inflammatory pain in mice, Von Frey test (paw withdrawal threshold). The class given is in vivo, Kunming mice. Conditions: for response to the compound (pain threshold): CFA mice, intraperitoneal administration, approximately 0.03 mmol/kg (9, 10 or 11 mg/kg), seven mice; for change of paw withdrawal threshold after injection of drug: drug injected 24 hours after CFA, mice with inflammatory pain. How it is done:
The analgesic assays of three vanadium compounds (bis(maltolato)oxovanadium, bis(ethylmaltolato)oxovanadium, and bis(kojato)oxovanadium) in mice are presented below. Some of the results are shown in FIG. 1, where S1 is bis(maltolato)oxovanadium, S2 is bis(ethylmaltolato)oxovanadium, S3 is bis(kojato)oxovanadium, and thepositive group (i.e., a positive control group) is aspirin group.
10 μl of complete Freund's adjuvant (CFA) was injected subcutaneously into the plantar surface of the left hindpaws of mice (♂ Kunming mice, 22-40 g) to produce inflammation. Von Frey tests were performed at 24 hours after injection or later to determine pain thresholds, i.e., under the guidance of a Dixon's Up-Down method, mice were induced with Von Frey fibers to have mechanical withdrawal of their hindpaws data were collected, and their 50% paw withdrawal thresholds (referred to as paw withdrawal threshold or PWT), namely the pain thresholds, were calculated. Afterwards, the mice were divided into a physiological saline group, a positive control group and a drug group, and injected intraperitoneally with 0.4 ml of physiological saline, 0.4 ml of aspirin (acetylsalicylic acid, or ASA) Tris-buffer solution at a concentration of 20 mg/ml and a mixed solution of a tested compound and 0.4 ml of cellulose solution (1%), respectively. Then, changes in the pain threshold were monitored with the Von Frey tests.

For `Cc1occc(=O)c1[O][V](=[O])[O]c1c(C)occc1=O` [S1, bis(maltolato)oxovanadium(IV)], the “response to the compound (pain threshold)” value (“response to the compound” below) was “all seven mice showed a response to the compound with a general increase in pain threshold” and the “change of paw withdrawal threshold after injection of drug” value (from here on “change of paw withdrawal threshold”) is listed as “significant increase in the paw withdrawal threshold”.
On to `CCc1occc(=O)c1[O][V](=[O])[O]c1c(CC)occc1=O` [S2, bis(ethylmaltolato)oxovanadium(IV)], for which the “response to the compound” value is “all seven mice showed a response to the compound with a general increase in pain threshold” and the “change of paw withdrawal threshold” value is “significant increase in the paw withdrawal threshold”.
As for `[O]=[V-2]12([O]C3=COC(CO)=CC3=[O+]1)[O]C1=COC(CO)=CC1=[O+]2` [S3, bis(kojato)oxovanadium(IV)], the “response to the compound” value is “all seven mice showed a response to the compound with a general increase in pain threshold” and the “change of paw withdrawal threshold” value is given as “significant increase in the paw withdrawal threshold”.
